# PubChem BioAssay AID2060497 (Molecular Pharmacology Branch, DTP, NCI, 2025)
# System: 317291-083-R-J1-PDC complex spheroids, viability
# Experiment: Anticancer human tumor 317291-083-R-J1-PDC patient-derived soft tissue sarcoma cell line growth inhibition [GQUAD]
# Conditions: for IC50: curve of first compound; for viability, T/C: stronger effect = lower value
# Description: DNA G-quadruplex Stabilizer Agents in Combinations in Complex Spheroids
# A high-throughput screen of multi-cell type tumor spheroids was designed to identify active combinations of DNA G-quadruplex stabilizer agents and targeted small molecules. Complex spheroids include a stromal component modeled by human endothelial cells (HUVEC) and fibroblasts modeled by human mesenchymal stem cells (MSCs). The concentration ranges selected for each drug and investigational agent were based upon clinically achievable concentrations if the clinical Cmax of the agent was known.
# Compounds. The drugs and investigational agents: pidnarulex (CX-5461; NSC782164), APTO-253 (NSC789042), BRACO-19 (NSC847499), peposertib (NSC802822), ceralasertib (NSC780249), elimusertib (NSC800525), camonsertib (NSC841442), AZD-1390 (NSC803789), olaparib (NSC753686), talazoparib (NSC767125), ART-558 (NSC835418), sotorasib (NSC818433), MRTX-1133 (NSC836407), SN-38 (NSC673596), topotecan (NSC609699), etoposide (NSC141540), doxorubicin (NSC123127), gemcitabine (NSC613327), 5-fluorouracil (NSC19893), paclitaxel (NSC125973), vemurafenib (NSC761431), panobinostat (NSC761190), R-306465 (JNJ-16241199; NSC773264), adavosertib (NSC754352), TP-3654 (NSC805149), carboplatin (NSC241240), KSQ-4279 (NSC840948), and staurosporine (NSC755774) were obtained from the National Cancer Institute (NCI) Developmental Therapeutics Program Chemical Repository (34). The FDA-approved anticancer drug set is available from the NCI Developmental Therapeutics Program. […] The stock solutions were prepared in dimethyl sulfoxide (DMSO, Sigma-Aldrich, St. Louis, MO, cat. D2650) at 800-fold the tested concentration and stored at -70 degrees C prior to their use. All drugs and investigational agents were tested over a range starting from a high concentration at or near the clinical Cmax and decreasing in half-log increments. If the clinical Cmax for an agent had not been determined, the highest concentration tested was 10 microM.
# 2.3 Cell Culture. All cells were maintained in an incubator at 37 degrees C and 5% CO2 with 95% humidity. The PDC lines were cultured according to standard operating procedures established by the NCI PDMR. All PDCs were thawed and cultured in Matrigel-coated flasks prepared with a working solution of 1X Ham's F-12 nutrient mix, without supplementation (Invitrogen, cat. 11765054), 100 U/mL penicillin-streptomycin (Invitrogen, cat. 15140122), and 2.5% Matrigel (Corning Inc., cat. 354248) for the first three passages. The 857933-349-R-J2-PDC line was cultured in 6C/Colon 1B media, which includes advanced DMEM/F-12 (Thermo Fisher Scientific, cat. 12634028), 10 mM HEPES (Thermo Fisher Scientific, cat. 15630080), 1X GlutaMAX supplement (Thermo Fisher Scientific, cat. 35050061), 0.1 mg/mL primocin (InvivoGen, cat. ant-pm-2), 10% defined fetal bovine serum, heat inactivated (HyClone Laboratories Inc., cat. SH30070.03HI), 50% L-WRN conditioned media (ATCC, cat. CRL-3276), 1.25 mM N-Acetyl-L-cysteine (Sigma-Aldrich, cat. A9165), 10 mM nicotinamide (Sigma-Aldrich, cat. N0636), 1X B-27 supplement (Thermo Fisher Scientific, cat. 17504044), 1X N-2 supplement (Thermo Fisher Scientific, cat. 17502048), 10 microM Y-27632 dihydrochloride (Tocris Bioscience, cat. 1254), and 50 ng/mL human EGF recombinant protein (Thermo Fisher Scientific, cat. PHG0311). The 485176-168-R4-J1-PDC line was cultured in Panc media, which includes all 6C/Colon 1B media components plus 100 ng/mL human FGF-10 (Thermo Fisher Scientific, cat. 100-26), 500 nM SB-431542 (Selleckchem, cat. S1067), and gastrin (Tocris, cat. 3006).
# […]
# [1] = second compound 0.0316 µM, first compound 0.0316 µM
# [2] = second compound 0.0316 µM, first compound 0.1 µM
# [3] = second compound 0.0316 µM, first compound 0.316 µM
# [4] = second compound 0.0316 µM, first compound 1 µM
# [5] = second compound 0.0316 µM, first compound 3.16 µM
# [6] = second compound 0.0316 µM, first compound 10 µM
# [7] = second compound 0.1 µM, first compound 0.0316 µM
# [8] = second compound 0.1 µM, first compound 0.1 µM
# [9] = second compound 0.1 µM, first compound 0.316 µM
# [10] = second compound 0.1 µM, first compound 1 µM
# [11] = second compound 0.1 µM, first compound 3.16 µM
# [12] = second compound 0.1 µM, first compound 10 µM
# [13] = second compound 0.316 µM, first compound 0.0316 µM
# [14] = second compound 0.316 µM, first compound 0.1 µM
# [15] = second compound 0.316 µM, first compound 0.316 µM
# [16] = second compound 0.316 µM, first compound 1 µM
# [17] = second compound 0.316 µM, first compound 3.16 µM
# [18] = second compound 0.316 µM, first compound 10 µM
# [19] = second compound 1 µM, first compound 0.0316 µM
# [20] = second compound 1 µM, first compound 0.1 µM
# [21] = second compound 1 µM, first compound 0.316 µM
# [22] = second compound 1 µM, first compound 1 µM
# [23] = second compound 1 µM, first compound 3.16 µM
# [24] = second compound 1 µM, first compound 10 µM
# [25] = second compound 3.16 µM, first compound 0.0316 µM
# [26] = second compound 3.16 µM, first compound 0.1 µM
# [27] = second compound 3.16 µM, first compound 0.316 µM
# [28] = second compound 3.16 µM, first compound 1 µM
# [29] = second compound 3.16 µM, first compound 3.16 µM
# [30] = second compound 3.16 µM, first compound 10 µM
# [31] = second compound 10 µM, first compound 0.0316 µM
# [32] = second compound 10 µM, first compound 0.1 µM
# [33] = second compound 10 µM, first compound 0.316 µM
# [34] = second compound 10 µM, first compound 1 µM
# [35] = second compound 10 µM, first compound 3.16 µM
# [36] = second compound 10 µM, first compound 10 µM
# 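Note: spheroids exposed to compounds for one week before readout.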
# 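Throughout, for viability, T/C: percent viability relative to DMSO vehicle wells taken as 100%.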
compound,measurement,setting,value
CC(C)n1c(=O)n(C)c2cnc3cc(F)c(-c4ccc(OCCCN5CCCCC5)nc4)cc3c21 + CN(C)c1ccc(Nc2c3ccc(NC(=O)CCN4CCCC4)cc3nc3cc(NC(=O)CCN4CCCC4)ccc23)cc1,IC50,second compound 0.0316 µM,6620 nM
same,IC50,second compound 0.1 µM,3820 nM
same,IC50,second compound 0.316 µM,784 nM
same,IC50,second compound 1 µM,42.8 nM
same,IC50,second compound 3.16 µM,< 31.6 nM
same,IC50,second compound 10 µM,< 31.6 nM
same,"viability, T/C",[1],96.6%
same,"viability, T/C",[2],88.6%
same,"viability, T/C",[3],92.1%
same,"viability, T/C",[4],86.7%
same,"viability, T/C",[5],79%
same,"viability, T/C",[6],34.3%
same,"viability, T/C",[7],92.9%
same,"viability, T/C",[8],79.9%
same,"viability, T/C",[9],96.3%
same,"viability, T/C",[10],81.9%
same,"viability, T/C",[11],56%
same,"viability, T/C",[12],20.6%
same,"viability, T/C",[13],92.8%
same,"viability, T/C",[14],65%
same,"viability, T/C",[15],57.6%
same,"viability, T/C",[16],47.2%
same,"viability, T/C",[17],49.6%
same,"viability, T/C",[18],10.5%
same,"viability, T/C",[19],53.7%
same,"viability, T/C",[20],44.7%
same,"viability, T/C",[21],24.4%
same,"viability, T/C",[22],34.4%
same,"viability, T/C",[23],20.1%
same,"viability, T/C",[24],7.52%
same,"viability, T/C",[25],31.8%
same,"viability, T/C",[26],12.2%
same,"viability, T/C",[27],12.3%
same,"viability, T/C",[28],4.69%
same,"viability, T/C",[29],4.81%
same,"viability, T/C",[30],1.25%
same,"viability, T/C",[31],27.5%
same,"viability, T/C",[32],3.95%
same,"viability, T/C",[33],0.88%
same,"viability, T/C",[34],0.42%
same,"viability, T/C",[35],0.55%
same,"viability, T/C",[36],4.73%
CC1COCCN1c1cc(-c2ccnn2C)c2ccnc(-c3ccn[nH]3)c2n1 (centres undefined) + CN(C)c1ccc(Nc2c3ccc(NC(=O)CCN4CCCC4)cc3nc3cc(NC(=O)CCN4CCCC4)ccc23)cc1,IC50,second compound 0.0316 µM,64.7 nM
same,IC50,second compound 0.1 µM,66.8 nM
same,IC50,second compound 0.316 µM,42.4 nM
same,IC50,second compound 1 µM,< 31.6 nM
same,IC50,second compound 3.16 µM,< 31.6 nM
same,IC50,second compound 10 µM,< 31.6 nM
same,"viability, T/C",[1],87.2%
same,"viability, T/C",[2],27.4%
same,"viability, T/C",[3],17%
same,"viability, T/C",[4],13.8%
same,"viability, T/C",[5],13.8%
same,"viability, T/C",[6],14.2%
same,"viability, T/C",[7],84.5%
same,"viability, T/C",[8],31.4%
same,"viability, T/C",[9],14.9%
same,"viability, T/C",[10],13.7%
same,"viability, T/C",[11],12.1%
same,"viability, T/C",[12],14%
same,"viability, T/C",[13],59.1%
same,"viability, T/C",[14],24.3%
same,"viability, T/C",[15],15.2%
same,"viability, T/C",[16],11.2%
same,"viability, T/C",[17],15.5%
same,"viability, T/C",[18],19.9%
same,"viability, T/C",[19],41.1%
same,"viability, T/C",[20],17%
same,"viability, T/C",[21],33.6%
same,"viability, T/C",[22],10.3%
same,"viability, T/C",[23],7.25%
same,"viability, T/C",[24],6.88%
same,"viability, T/C",[25],25.8%
same,"viability, T/C",[26],7.15%
same,"viability, T/C",[27],5.62%
same,"viability, T/C",[28],4.31%
same,"viability, T/C",[29],3.37%
same,"viability, T/C",[30],2.05%
same,"viability, T/C",[31],3.62%
same,"viability, T/C",[32],5.3%
same,"viability, T/C",[33],7.04%
same,"viability, T/C",[34],4%
same,"viability, T/C",[35],1.52%
same,"viability, T/C",[36],0.66%
